Test results taken from US20260001893A1, “SMALL MOLECULE MODULATORS OF STAT6” (Gilead Sciences, Inc., priority 2024, published 2026).

The molecules below were run on Eotaxin-3 (CCL26) release in human whole blood stimulated with IL-4 (assay: Human whole blood eotaxin-3 assay (IL-4 stimulated eotaxin-3 release)). Conditions: Homo sapiens, 48 h, human whole blood stimulated with recombinant human IL-4, 48 h; inhibition of eotaxin-3 release; given for test compounds with >80% Emax; geometric mean.
Type: cell-based
Method in brief: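 Lithium-heparin human whole blood was preincubated with compound (4-fold serial dilution, 0.5% DMSO final) for 2 h at 37° C, then stimulated with recombinant human IL-4 at […] final for 48 h. Eotaxin-3 (CCL26) in the supernatant was measured by MSD immunoassay.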
An EC50 of 25.1 nM was found for `CNc1ccn(-c2ccnc3c2cc([C@H](C)N2CC=C(c4c(C)cc(C(=O)N(C)C)cc4F)CC2)n3C)c(=O)c1F` [Example 1m125, (S)-3-fluoro-4-(1-(1-(4-(3-fluoro-4-(methylamino)-2-oxopyridin-1 (2H)-yl)-1-methyl-1H-pyrrolo[2,3-b]pyridin-2-yl)ethyl)-1,2,3,6-tetrahydropyridin-4-yl)-N,N,5-trimethylbenzamide] in this work. An EC50 of 12.2 nM was found for `C[C@@H](c1cc2c(-n3ccc4c(c3=O)CCN4)ccnc2n1C)N1CCC(c2c(F)cc(C(=O)N(C)C)cc2F)CC1` [Example 1m126, (S)-3,5-difluoro-N,N-dimethyl-4-(1-(1-(1-methyl-4-(4-oxo-1,2,3,4-tetrahydro-5H-pyrrolo[3,2-c]pyridin-5-yl)-1H-pyrrolo[2,3-b]pyridin-2-yl)ethyl)piperidin-4-yl)benzamide] in this work. An EC50 of 49.5 nM was found for `C[C@H](c1cc2c(-n3ccc4c(c3=O)CCN4)ccnc2n1C)N1CCC(c2c(F)cc(C(=O)N(C)C)cc2F)CC1` [Example 1m127, (R)-3,5-difluoro-N,N-dimethyl-4-(1-(1-(1-methyl-4-(4-oxo-1,2,3,4-tetrahydro-5H-pyrrolo[3,2-c]pyridin-5-yl)-1H-pyrrolo[2,3-b]pyridin-2-yl)ethyl)piperidin-4-yl)benzamide] in this work. An EC50 of 3.42 nM was found for `[2H]C([2H])([2H])N(C(=O)c1cc(C)c(C2=CCN([C@@H](C)c3cc4c(-n5ccc6c(c5=O)CCN6)ccnc4n3C)CC2)c(F)c1)C([2H])([2H])[2H]` [Example 1m128, (S)-3-fluoro-5-methyl-N,N-bis(methyl-d3)-4-(1-(1-(1-methyl-4-(4-oxo-1,2,3,4-tetrahydro-5H-pyrrolo[3,2-c]pyridin-5-yl)-1H-pyrrolo[2,3-b]pyridin-2-yl)ethyl)-1,2,3,6-tetrahydropyridin-4-yl)benzamide] in this work. An EC50 of 4.09 nM was found for `CNc1nc(=O)n(-c2ccnc3c2cc([C@H](C)N2CC=C(c4c(C)cc(C(=O)N(C)C)cc4F)CC2)n3C)cc1F` [Example 1m129, (S)-3-fluoro-4-(1-(1-(4-(5-fluoro-4-(methylamino)-2-oxopyrimidin-1 (2H)-yl)-1-methyl-1H-pyrrolo[2,3-b]pyridin-2-yl)ethyl)-1,2,3,6-tetrahydropyridin-4-yl)-N,N,5-trimethylbenzamide] in this work. An EC50 of 22.5 nM was found for `CNc1cc(=O)n(-c2ccnc3c2cc([C@@H](C)N2CCC(c4c(C)cc(C(=O)N(C)C)cc4F)CC2)n3C)cc1F` [Example 1m130, (R)-3-fluoro-4-(1-(1-(4-(5-fluoro-4-(methylamino)-2-oxopyridin-1 (2H)-yl)-1-methyl-1H-pyrrolo[2,3-b]pyridin-2-yl)ethyl)piperidin-4-yl)-N,N,5-trimethylbenzamide] in this work. An EC50 of 891 nM was found for `CNc1cc(=O)n(-c2ccnc3c2cc([C@H](C)N2CCC(c4c(C)cc(C(=O)N(C)C)cc4F)CC2)n3C)cc1F` [Example 1m131, (S)-3-fluoro-4-(1-(1-(4-(5-fluoro-4-(methylamino)-2-oxopyridin-1 (2H)-yl)-1-methyl-1H-pyrrolo[2,3-b]pyridin-2-yl)ethyl)piperidin-4-yl)-N,N,5-trimethylbenzamide] in this work. An EC50 of 10.8 nM was found for `Cc1cc(C(=O)N(C)C)cc(F)c1C1=CCN([C@@H](C)c2cc3c(-n4cc(F)c(N)c(F)c4=O)ccnc3n2C)CC1` [Example 1m132, (S)-4-(1-(1-(4-(4-amino-3,5-difluoro-2-oxopyridin-1 (2H)-yl)-1-methyl-1H-pyrrolo[2,3-b]pyridin-2-yl)ethyl)-1,2,3,6-tetrahydropyridin-4-yl)-3-fluoro-N,N,5-trimethylbenzamide] in this work. An EC50 of 75.2 nM was found for `CN(C)C(=O)c1cc(F)c(C2CCN(Cc3cc4c(-n5cc(F)c6c(c5=O)CCN6)ccnc4n3C)CC2)c(F)c1` [Example 1m133, 3,5-difluoro-4-(1-((4-(7-fluoro-4-oxo-1,2,3,4-tetrahydro-5H-pyrrolo[3,2-c]pyridin-5-yl)-1-methyl-1H-pyrrolo[2,3-b]pyridin-2-yl)methyl)piperidin-4-yl)-N,N-dimethylbenzamide] in this work. An EC50 of 48.1 nM was found for `CNc1c(F)cn(-c2ccnc3c2cc(CN2CCC(c4c(F)cc(C(=O)N(C)C)cc4F)CC2)n3C)c(=O)c1F` [Example 1m136, 4-(1-((4-(3,5-difluoro-4-(methylamino)-2-oxopyridin-1 (2H)-yl)-1-methyl-1H-pyrrolo[2,3-b]pyridin-2-yl)methyl)piperidin-4-yl)-3,5-difluoro-N,N-dimethylbenzamide] in this work. An EC50 of 589 nM was found for `CNc1cc(=O)n(-c2ccnc3c2cc([C@H](C)N2CC=C(c4c(C)cc(C(=O)N(C)C)cc4F)CC2)n3C)cc1OC` [Example 1m137, (S)-3-fluoro-4-(1-(1-(4-(5-methoxy-4-(methylamino)-2-oxopyridin-1 (2H)-yl)-1-methyl-1H-pyrrolo[2,3-b]pyridin-2-yl)ethyl)-1,2,3,6-tetrahydropyridin-4-yl)-N,N,5-trimethylbenzamide] in this work. An EC50 of 229 nM was found for `CNc1ccn(-c2ccnc3c2cc([C@H](C)N2CC=C(c4c(C)cc(C(=O)N(C)C)cc4F)CC2)n3C)c(=O)c1OC` [Example 1m138, (S)-3-fluoro-4-(1-(1-(4-(3-methoxy-4-(methylamino)-2-oxopyridin-1 (2H)-yl)-1-methyl-1H-pyrrolo[2,3-b]pyridin-2-yl)ethyl)-1,2,3,6-tetrahydropyridin-4-yl)-N,N,5-trimethylbenzamide] in this work. An EC50 of 50.2 nM was found for `CNc1ccn(-c2ccnc3c2cc(C(C)N2CC=C(c4c(C)cc(C(=O)N(C)C)cc4F)C(F)(F)C2)n3C)c(=O)c1` (centres unmarked) [Example 1m139, 4-(3,3-difluoro-1-(1-(1-methyl-4-(4-(methylamino)-2-oxopyridin-1 (2H)-yl)-1H-pyrrolo[2,3-b]pyridin-2-yl)ethyl)-1,2,3,6-tetrahydropyridin-4-yl)-3-fluoro-N,N,5-trimethylbenzamide] in this work. An EC50 of 16.1 nM was found for `CNc1c(F)cn(-c2ccnc3c2cc([C@H](C)N2CC=C(c4c(C)cc(C(=O)N(C)C)cc4F)CC2)n3C)c(=O)c1F` [Example 1m140, (S)-4-(1-(1-(4-(3,5-difluoro-4-(methylamino)-2-oxopyridin-1 (2H)-yl)-1-methyl-1H-pyrrolo[2,3-b]pyridin-2-yl)ethyl)-1,2,3,6-tetrahydropyridin-4-yl)-3-fluoro-N,N,5-trimethylbenzamide] in this work. An EC50 of 156 nM was found for `CN(C)C(=O)c1ccc(C2=CCN(Cc3cc4c(-n5ccc6c(c5=O)CCN6)ccnc4n3C)CC2)c(OC(F)(F)F)c1` [Example 1m146, NN-dimethyl-4-(1-((1-methyl-4-(4-oxo-1,2,3,4-tetrahydro-5H-pyrrolo[3,2-c]pyridin-5-yl)-1H-pyrrolo[2,3-b]pyridin-2-yl)methyl)-1,2,3,6-tetrahydropyridin-4-yl)-3-(trifluoromethoxy)benzamide] in this work. An EC50 of 60.1 nM was found for `[2H]C([2H])([2H])N(C(=O)c1ccc(C2CCN([C@@H](C)c3cc4c(-n5ccc6[nH]nc(C(F)(F)F)c6c5=O)ccnc4n3C)CC2)cc1)C([2H])([2H])[2H]` [Example 1m147, (S)—N,N-bis(methyl-d3)-4-(1-(1-(1-methyl-4-(4-oxo-3-(trifluoromethyl)-1,4-dihydro-5H-pyrazolo[4,3-c]pyridin-5-yl)-1H-pyrrolo[2,3-b]pyridin-2-yl)ethyl)piperidin-4-yl)benzamide] in this work.

Each molecule was assayed against T1, Human STAT6 (truncated, aa122-658, with N-terminal His-tag) (Homo sapiens, UniProt P42226) (assay: Surface plasmon resonance (SPR) assay, binding to human STAT6). Conditions: Biacore 8K, 25° C, immobilized human STAT6 on CM5 chip, multi-cycle kinetics; geometric mean.
T1 construct: Human STAT6 (truncated, aa122-658, with N-terminal His-tag, expressed in insect cells); His-tag (N); made in house; host or cells: insect cells
T1 sequence (P42226 122-658): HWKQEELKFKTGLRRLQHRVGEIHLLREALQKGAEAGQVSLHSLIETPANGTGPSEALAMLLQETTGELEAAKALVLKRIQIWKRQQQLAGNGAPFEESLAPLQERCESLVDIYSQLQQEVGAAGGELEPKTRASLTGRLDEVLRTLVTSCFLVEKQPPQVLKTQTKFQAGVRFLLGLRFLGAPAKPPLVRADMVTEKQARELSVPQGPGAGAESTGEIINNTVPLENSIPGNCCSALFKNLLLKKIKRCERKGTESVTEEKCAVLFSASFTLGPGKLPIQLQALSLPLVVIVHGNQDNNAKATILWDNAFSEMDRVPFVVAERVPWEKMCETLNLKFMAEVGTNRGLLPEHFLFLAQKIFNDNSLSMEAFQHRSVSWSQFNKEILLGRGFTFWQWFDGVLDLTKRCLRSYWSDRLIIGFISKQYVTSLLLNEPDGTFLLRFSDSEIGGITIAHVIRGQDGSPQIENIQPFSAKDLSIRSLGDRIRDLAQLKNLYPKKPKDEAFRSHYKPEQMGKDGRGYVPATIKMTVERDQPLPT
Method: Surface Plasmon Resonance Assay
Biacore instruments from the 8K-series (Cytiva) were used, and measurements were performed at 25° C. Human STAT6 (truncated, aa122-658, with N-terminal His-tag, expressed in insect cells) was immobilized in the active flow cells on a CM5 chip using amine-coupling (default settings) at 10 μg/ml in 10 mM acetate buffer pH 5.5, at a contact time of 120-420 sec. and a flow rate of 10 μl/min. Reference flow cells were deactivated using blank immobilization. PBS-P+(Cytiva) supplemented with 2% DMSO was used as running buffer, and solvent correction was applied. Compounds were tested by multi-cycle kinetics injections using a contact time of 60 sec., dissociation time of up to 300 sec., and a flow rate of 30 μl/min.
Solvent-corrected, reference-subtracted and blank-corrected data was processed and binding isotherms were fitted according to a single report point from each sensorgram (Standard: Late binding (5 sec. before injection end); alternative: Earlier report point according to binding profile). Data fitting was done both with unfixed Rmax and with Rmax fixed to the theoretical value* assuming 1:1 binding to allow processing of data from both weak and strong binders as well as to evaluate binding stoichiometry.
Positive controls were run at the beginning, during, and at the end of the screen to evaluate surface activity.
*Equation for calculation of the theoretical Rmax(Theoretical Rmax=(MW Analyte/MW Ligand)×immobilization level).
A Kd of 81.3 nM was found for `CNc1ccn(-c2ccnc3c2cc(CN2CCC(c4ccc(C(=O)N(C)C)cc4)C(F)(F)C2)n3C)c(=O)c1` (single isomer, unassigned) [Example 1f2] in this work. A Kd of 67.5 nM was found for `CNc1ccn(-c2ccnc3c2cc(CN2CC[C@H](c4ccc(C(=O)N(C)C)cc4)[C@H](F)C2)n3C)c(=O)c1` (single isomer, unassigned) [Example 1f6] in this work. A Kd of 338 nM was found for `CNc1ccn(-c2ccnc3c2cc([C@H](C)N2CCC(c4ccc(C(=O)N(C)C)cc4)CC2)n3C)c(=O)c1` (single isomer, unassigned) [Example 1m72] in this work. A Kd of 224 nM was found for `CN(C)C(=O)c1ccc(C2CCN(Cc3cc4c(-n5ncc(N)cc5=O)ccnc4n3C)CC2)cc1` [Example 1ab4, 4-(1-((4-(4-Amino-6-oxopyridazin-1 (6H)-yl)-1-methyl-1H-pyrrolo[2,3-b]pyridin-2-yl)methyl)piperidin-4-yl)-N,N-dimethylbenzamide] in this work.
